Test results from patent publication US7329678B2, “Chemical compounds” (SmithKline Beecham Corporation, priority 2003, dated 2008).
pIC50: −log10 of the molar value. Where a name gives a salt, the structure may show the parent alone.

Biological target: T1, Serum Glucocorticoid-regulated Kinase-1 (SGK-1) (Homo sapiens, UniProt O00141, S422D)
T1 construct: a truncated form of the human enzyme that included amino acids 61-431; 6xHis (N); made in house
T1 sequence (O00141 61-431 S422D): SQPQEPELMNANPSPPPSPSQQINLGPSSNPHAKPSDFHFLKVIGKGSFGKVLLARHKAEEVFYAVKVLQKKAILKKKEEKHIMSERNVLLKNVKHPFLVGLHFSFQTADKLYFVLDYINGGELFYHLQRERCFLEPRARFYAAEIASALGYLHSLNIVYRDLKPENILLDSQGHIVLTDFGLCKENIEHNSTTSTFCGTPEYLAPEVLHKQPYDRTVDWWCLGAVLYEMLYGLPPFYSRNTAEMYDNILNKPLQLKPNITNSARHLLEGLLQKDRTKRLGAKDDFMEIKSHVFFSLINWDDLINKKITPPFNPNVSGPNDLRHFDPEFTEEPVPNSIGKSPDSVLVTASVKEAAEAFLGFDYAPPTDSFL
Test: SGK-1 Enzyme Assay (SGK1e), substrate phosphorylation, scintillation proximity
Assay type: biochemical
Conditions: truncated human SGK-1 (aa 61-431, S422D), 10 μM ATP, Crosstide substrate
Method: SGK-1 Enzyme Assay (SGK1e):
Compounds of the present invention were tested for Serum Glucocorticoid-regulated Kinase-1 (SGK-1) protein serine/threonine kinase inhibitory activity in substrate phosphorylation assays using enzyme purified from a baculovirus expression vector system. The recombinant baculovirus was made to express the intracellular domain of SGK-1 (GenBank accession number AAD41091). The virus expressed a truncated form of the human enzyme that included amino acids 61-431. Serine 422 was replaced with Aspartic acid to activate the enzyme, and 6 Histidine residues were added at the amino terminus to facilitate purification. The protein was purified using Ni-NTA agarose affinity chromatography. The peptide substrate was an N-terminal biotinylated synthetic peptide named Crosstide (biotin-Ahx-GRPRTSSFAEG-OH), corresponding to the sequence in GSK3 surrounding the serine phosphorylated by MAPKAP Kinase-1/Rsk and p70 S6 Kinase.
The method measures the ability of the isolated enzyme to catalyze the transfer of the γ-phosphate from ATP onto serine/threonine residues in the biotinylated Crosstide. Reactions were performed in 96-well polystyrene round-bottom plates in a final volume of 30 μL. Reaction mixtures contained 62.5 mM HEPES (pH 7.4), 10 mM MgCl2, 0.1 mM EDTA, 0.0024% TWEEN-20, and 1 mM DTT (added fresh daily), 10 μM ATP, 0.2 μCi [[ν-^33P] ATP per reaction, 4 μM Crosstide peptide substrate, and 1 nM SGK1 enzyme. Reactions were initiated by adding the indicated enzyme. The reaction was allowed to proceed for 2 hours, then terminated by the addition of 50 mM EDTA and quantified using a scintillation proximity assay procedure as described (McDonald, O. B., Antonsson, B., Arkinstal, S., Marshall, C. J., and Wood, E. R. (1999) Analytical Biochemistry, 268, 318-329).
Compounds under analysis were dissolved in Me2SO to 1 mM and serially diluted 1 to 3 with Me2SO through eleven columns of a 96 well plate. 1 μL of each concentration was transferred to the corresponding well of the assay plate. This created a final compound concentration range from 0.56 nM to 33.3 μM.
The data for dose responses were plotted as % Control calculated with the data reduction formula 100*(U1−C2)/(C1−C2) versus concentration of compound and fitted to the curve described by: y=((Vmax*x)/(K+x)) where Vmax is the upper asymptote and K is the IC50.

`Nc1ncc(-c2ccccc2)cc1-c1nc2ccccc2[nH]1` [Example 1, 3-(1H-benzimidazol-2-yl)-5-phenylpyridin-2-amine hydrochloride] was tested, and the pIC50 was > 6.00.

In the case of `Nc1ncc(-c2ccccc2)cc1-c1nc2ccc(S(N)(=O)=O)cc2[nH]1` [Example 4, 2-(2-amino-5-phenylpyridin-3-yl)-1H-benzimidazole-6-sulfonamide hydrochloride], the pIC50 was > 6.00.

With `COC(=O)c1ccc2nc(-c3cc(-c4cccc(OC)c4)cnc3N)[nH]c2c1` [Example 7, Methyl 2-[2-amino-5-(3-methoxyphenyl)pyridin-3-yl]-1H-benzimidazole-6-carboxylate hydrochloride] the pIC50 was > 6.00.

In the case of `COc1cccc(-c2cnc(N)c(-c3nc4cc(Cl)c(F)cc4[nH]3)c2)c1` [Example 11, 3-(5-chloro-6-fluoro-1H-benzimidazol-2-yl)-5-(3-methoxyphenyl)pyridin-2-amine hydrochloride], the pIC50 was > 6.00.

`Nc1ncc(-c2ccc(F)cc2)cc1-c1nc2ccc(S(N)(=O)=O)cc2[nH]1` [Example 14, 2-[2-amino-5-(4-fluorophenyl)pyridin-3-yl]-1H-benzimidazole-6-sulfonamide] was tested, and the pIC50 was > 6.00.

With `Cc1cccc2[nH]c(-c3cc(-c4ccc(F)cc4)cnc3N)nc12` [Example 17, 5-(4-fluorophenyl)-3-(4-methyl-1H-benzimidazol-2-yl)pyridin-2-amine] the pIC50 was > 6.00.
